# Measurements as given in BindingDB's records for PubMed 9536007 (University of Bonn, 1998).
# Several values for one entry are separate records, joined by “and”; a condition that tells them apart may be missing. Equal values may be shown once. Where a name gives a salt, the structure may show the parent alone.
# Molecular target: Nischarin (Rattus norvegicus, UniProt Q4G017)
# Sequence (Q4G017 whole entry): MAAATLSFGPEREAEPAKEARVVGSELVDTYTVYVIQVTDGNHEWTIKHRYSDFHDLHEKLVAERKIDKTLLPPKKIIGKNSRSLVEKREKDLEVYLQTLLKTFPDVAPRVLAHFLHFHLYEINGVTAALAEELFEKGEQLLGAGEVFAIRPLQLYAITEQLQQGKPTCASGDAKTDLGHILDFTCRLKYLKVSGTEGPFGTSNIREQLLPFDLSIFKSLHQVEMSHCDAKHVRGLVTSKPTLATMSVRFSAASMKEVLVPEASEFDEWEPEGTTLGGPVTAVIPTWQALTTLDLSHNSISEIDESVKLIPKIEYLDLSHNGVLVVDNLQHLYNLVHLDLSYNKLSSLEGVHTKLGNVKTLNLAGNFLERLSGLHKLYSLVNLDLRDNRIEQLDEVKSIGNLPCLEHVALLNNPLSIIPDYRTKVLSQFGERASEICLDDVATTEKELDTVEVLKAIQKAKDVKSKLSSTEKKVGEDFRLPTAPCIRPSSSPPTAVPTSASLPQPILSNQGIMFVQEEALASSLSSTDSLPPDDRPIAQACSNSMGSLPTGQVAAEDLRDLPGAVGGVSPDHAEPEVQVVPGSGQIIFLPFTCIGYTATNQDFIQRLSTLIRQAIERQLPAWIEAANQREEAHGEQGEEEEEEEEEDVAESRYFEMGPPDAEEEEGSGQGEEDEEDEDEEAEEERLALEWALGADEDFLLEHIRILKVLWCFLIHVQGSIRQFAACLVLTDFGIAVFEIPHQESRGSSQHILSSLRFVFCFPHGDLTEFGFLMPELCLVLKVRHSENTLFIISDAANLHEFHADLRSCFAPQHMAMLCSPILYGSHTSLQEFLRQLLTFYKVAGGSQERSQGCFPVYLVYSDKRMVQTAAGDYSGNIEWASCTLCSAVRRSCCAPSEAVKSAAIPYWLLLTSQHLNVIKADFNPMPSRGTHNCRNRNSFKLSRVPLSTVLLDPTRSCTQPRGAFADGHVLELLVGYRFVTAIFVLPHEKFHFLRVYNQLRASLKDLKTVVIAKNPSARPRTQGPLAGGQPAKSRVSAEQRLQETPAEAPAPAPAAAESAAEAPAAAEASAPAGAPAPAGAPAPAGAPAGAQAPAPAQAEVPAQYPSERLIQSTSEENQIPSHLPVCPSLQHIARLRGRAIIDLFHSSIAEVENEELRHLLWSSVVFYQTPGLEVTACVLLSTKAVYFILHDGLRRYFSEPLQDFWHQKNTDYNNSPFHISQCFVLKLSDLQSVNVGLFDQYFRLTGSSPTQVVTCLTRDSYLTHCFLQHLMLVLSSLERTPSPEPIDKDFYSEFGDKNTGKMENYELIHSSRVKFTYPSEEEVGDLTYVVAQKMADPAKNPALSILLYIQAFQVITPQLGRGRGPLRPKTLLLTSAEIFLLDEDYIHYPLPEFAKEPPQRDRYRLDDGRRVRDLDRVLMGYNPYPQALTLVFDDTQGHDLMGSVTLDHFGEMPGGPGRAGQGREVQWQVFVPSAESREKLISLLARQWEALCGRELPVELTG
row,SMILES,Ki
1,CN/C([CH-][N+](=O)[O-])=[NH+]\CCSCc1ccc(CN(C)C)o1,> 10 µM
2,N=C(N)NCCCCN,> 10 µM
3,"Clc1cccc(Cl)c1N=C1NCCN1 [2-(2,6-dichloroanilino)-2-imidazoline]",2.52 µM and > 10 µM
4,O=C(CCCN1CCC(O)(c2ccc(Cl)cc2)CC1)c1ccc(F)cc1 [4-[4-(4-Chloro-phenyl)-4-hydroxy-piperidin-1-yl]-1-(4-fluoro-phenyl)-butan-1-one;propionate(HCl)],0.5 µM
5,COc1nc(C)nc(Cl)c1N=C1NCCN1 [(4-Chloro-6-methoxy-2-methyl-pyrimidin-5-yl)-imidazolidin-2-ylidene-amine],> 10 µM
6,"C[C@]12NC(Cc3ccccc31)c1ccccc12 [(5S,10S)-(+)-5-methyl-10,11-dihydro-5Hdibenzo[a,d]cyclohepten-5,10-imine]",> 10 µM
7,Cc1ccccc1NC(=N)Nc1ccccc1C [CAS_97-39-2],0.93 µM
8,CCCN1CCC[C@@H](c2cccc(O)c2)C1 [Preclamol],> 10 µM
9,CC(C)=CCN1CC[C@@]2(C)c3cc(O)ccc3C[C@@H]1[C@@H]2C [Talwin],> 10 µM
10,NCCc1c[nH]cn1 [[3H]histamine],> 10 µM
11,COC(=O)[C@@H]1[C@H]2C[C@H]3c4[nH]c5ccccc5c4CCN3C[C@@H]2CC[C@@H]1O [yohimbic acid methyl ester],> 10 µM
